According to patent US20260256925A1, “INDAZOLE DERIVATIVES AS ESTROGEN RECEPTOR DEGRADERS” (REGENTS OF THE UNIVERSITY OF MICHIGAN, priority 2022, published 2026):

What was measured:
[1] = target: T1, ER (Homo sapiens, UniProt P03372); assay: In-cell western blot analysis, relative ER percentage (compounds B1-B126); format: cell-based; details: ER degradation, 16 hours, read-out: ICW DC50
T1 construct: endogenous in cells; probably T47D or MCF-7
T1 sequence (P03372 1-595): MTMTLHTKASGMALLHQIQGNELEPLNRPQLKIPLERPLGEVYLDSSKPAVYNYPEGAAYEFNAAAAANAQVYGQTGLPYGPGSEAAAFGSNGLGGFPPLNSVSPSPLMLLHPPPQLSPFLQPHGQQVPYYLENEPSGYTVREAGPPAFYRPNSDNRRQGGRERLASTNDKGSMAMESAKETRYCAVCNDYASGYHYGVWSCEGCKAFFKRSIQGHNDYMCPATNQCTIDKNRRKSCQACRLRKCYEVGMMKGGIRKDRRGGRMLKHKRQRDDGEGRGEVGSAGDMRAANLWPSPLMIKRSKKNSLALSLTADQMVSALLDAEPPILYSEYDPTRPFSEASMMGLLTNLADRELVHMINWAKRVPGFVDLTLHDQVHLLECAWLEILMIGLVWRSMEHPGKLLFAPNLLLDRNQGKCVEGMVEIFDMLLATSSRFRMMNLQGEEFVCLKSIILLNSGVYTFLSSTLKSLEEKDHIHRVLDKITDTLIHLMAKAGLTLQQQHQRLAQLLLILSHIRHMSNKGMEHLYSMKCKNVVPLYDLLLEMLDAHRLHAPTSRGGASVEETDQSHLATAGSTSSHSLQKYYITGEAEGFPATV
Experimental: In-cell western blot analysis. Cells are seeded in multi-well plates (e.g., at 40,000 or 10,000 cells/well). Diluted compounds at certain concentration are added (final 0.5% DMSO) and cells are incubated for a certain period of time (e.g., 16 hours). Formaldehyde (e.g., PBS: FA=9:1) is added and followed by washing with PBS. The cells are blocked with Licor blocking buffer (Li-Cor). The relative ER percentage in treated cells are obtained by comparing the values of treated wells to those in untreated and DMSO-treated wells as 100%.
In-cell western blot analysis. a. seed cells in black-sided/clear bottom 96- or 384-well plates at 40,000 or 10,000 cells/well, overnight; b. add diluted compounds (final 0.5% DMSO), 16 hours. […] RT 2h, gentle shaking. Negative control: cells plus secondary antibodies (no primary antibodies); e. wash×4 with PBS +0.05-0.1% Tween 20, gentel shaking; f. anti-rabbit-680 and anti-mouse-800 (both 1:1000 in LiCor block+0.05% Tween20, RT 1h, gentle shaking, no light. LI-COR: 0.2% to reduce background; g. wash×4 with PBS+0.05% Tween 20, gental shaking; h. add 100 μL or 25 μL of PBS to each well and read on CLX plate reader. The relative ER percentage in treated cells were obtained by comparing the values of treated wells to those in untreated and DMSO-treated wells as 100%.

[2] = Cell growth assay, WST-8 (compounds B1-B126); format: cell-based; details: 96 h; T47D cell line, WST-8, 4 days; read-out: Cell growth inhibition in T47D cell line IC50
Experimental: Cell Growth Assay. The cells are seeded at certain concentration (e.g., at 1500/well) in multi-well plates overnight. Cells are subsequently treated with the compounds. A certain period of time (e.g., 4 days) after the compound treatment, 10% WST-8 reagent is added to the culture medium and incubate under certain condiction (e.g., in a CO2 incubator at 37° C. for 2.5 hours). The absorbance is measured on each sample using a microplate reader at certain wavelength (e.g., 450 nm). The relative absorbance is calculated against the vehicle control from three individually repeats.
Cell Growth Assay. The cells were seeded at 1500/well in 96 well plates overnight. One day after the seeding, they were treated with indicated doses of compounds respectively. 4 days after the compound treatment, 10% WST-8 reagent was added to the culture medium and incubate in a CO2 incubator at 37° C. for 2.5 hours. Before reading, the plate was mixed gently on an orbital shaker for one minute to ensure homogeneous distribution of color. The absorbance was measured of each sample using a microplate reader at a wavelength of 450 nm. The relative absorbance was calculated against the vehicle control from three individually repeats.

Row | Compound | DC50 [1] | IC50 [2]
1 | 3-((R)-7-((7-(6-((6S,8R)-7-(2,2- difluoroethyl)-8-methyl-6,7,8,9- tetrahydro-3H-pyrazolo[4,3- f]isoquinolin-6-yl)pyridin-3-yl)-7- azaspiro[3.5]nonan-2-yl)mcthyl)-1- oxo-1,3,5,5a,6,7,8,9-octahydro-2H- pyrazino[1′,2′:4,5][1,4]oxazino[2,3- e]isoindol-2-yl)piperidine-2,6- dione [Compound B83] | > 100 nM | –
2 | COc1c2c(cc3c1CN(C1CCC(=O)NC1=O)C3=O)CN(CC(=O)N1CCC3(CC1)CCN(c1ccc([C@@H]4c5ccc6[nH]ncc6c5C[C@@H](C)N4CC(F)(F)F)nc1)CC3)C2 (stereo partly drawn) [Compound B75, 3-(4-methoxy-6-(2-(9-(6-((6S,8R)-8-methyl-7-(2,2,2-trifluoroethyl)-6,7,8,9-tetrahydro-3H-pyrazolo[4,3-f]isoquinolin-6-yl)pyridin-3-yl)-3,9-diazaspiro[5.5]undecan-3-yl)-2-oxoethyl)-1-oxo-3,5,6,7-tetrahydropyrrolo[3,4-f]isoindol-2(1H)-yl)piperidine-2,6-dione] | – | < 1 nM
3 | C[C@@H]1Cc2c(ccc3[nH]ncc23)[C@@H](c2c(F)cc(N3CCC(CN4CCC5(CCOc6c5ccc5c6CN(C6CCC(=O)NC6=O)C5=O)CC4)CC3)cc2F)N1CC(F)F (stereo partly drawn) [Compound B47, 3-(1-((1-(4-((6S,8R)-7-(2,2-difluoroethyl)-8-methyl-6,7,8,9-tetrahydro-3H-pyrazolo[4,3-f]isoquinolin-6-yl)-3,5-difluorophenyl)piperidin-4-yl)methyl)-7′-oxo-2′,3′,7′,9′-tetrahydro-8′H-spiro[piperidine-4,4′-pyrano[2,3-e]isoindol]-8′-yl)piperidine-2,6-dione] | – | < 1 nM
4 | C[C@@H]1Cc2c(ccc3[nH]ncc23)[C@@H](c2c(F)cc(N3CCC4(CCN(C(=O)CN5Cc6cc7c(cc6C5)C(=O)N(C5CCC(=O)NC5=O)C7=O)CC4)CC3)cc2F)N1CC(F)F (stereo partly drawn) [Compound B15, 6-(2-(9-(4-((6S,8R)-7-(2,2-difluoroethyl)-8-methyl-6,7,8,9-tetrahydro-3H-pyrazolo[4,3-f]isoquinolin-6-yl)-3,5-difluorophenyl)-3,9-diazaspiro[5.5]undecan-3-yl)-2-oxoethyl)-2-(2,6-dioxopiperidin-3-yl)-6,7-dihydropyrrolo[3,4-f]isoindole-1,3(2H,5H)-dione] | – | < 1 nM
5 | C[C@H]1Cc2c(ccc3[nH]ncc23)[C@H](c2ccc(N3CC4(CCC(CN5CCN(c6ccc(NC7CCC(=O)NC7=O)cc6F)CC5)CC4)C3)cn2)N1CC(F)(F)F (stereo partly drawn) [Compound B121, 3-((3-fluoro-4-(4-((2-(6-((6R,8S)-8-methyl-7-(2,2,2-trifluoroethyl)-6,7,8,9-tetrahydro-3H-pyrazolo[4,3-f]isoquinolin-6-yl)pyridin-3-yl)-2-azaspiro[3.5]nonan-7-yl)methyl)piperazin-1-yl)phenyl)amino)piperidine-2,6-dione] | > 100 nM | –
6 | C[C@@H]1Cc2c(ccc3[nH]ncc23)[C@@H](c2c(F)cc(C3=CCC(C(=O)N4CCC(N5Cc6cc7c(cc6C5)C(=O)N(C5CCC(=O)NC5=O)C7=O)CC4)CC3)cc2F)N1CC(F)F (stereo partly shown) [Compound B102] | > 100 nM | –
7 | C[C@@H]1Cc2c(ccc3[nH]ncc23)[C@@H](c2ccc(N3CCC4(CCN(CC(=O)N5Cc6cc7c(cc6C5)C(=O)N(C5CCC(=O)NC5=O)C7=O)CC4)CC3)cn2)N1CC(F)F (stereo partly drawn) [Compound B50, 6-(2-(9-(6-((6S,8R)-7-(2,2-difluoroethyl)-8-methyl-6,7,8,9-tetrahydro-3H-pyrazolo[4,3-f]isoquinolin-6-yl)pyridin-3-yl)-3,9-diazaspiro[5.5]undecan-3-yl)acetyl)-2-(2,6-dioxopiperidin-3-yl)-6,7-dihydropyrrolo[3,4-f]isoindole-1,3(2H,5H)-dione] | > 100 nM | –

Further lines, with some results ahead:

Row | DC50 [1] | Compound | IC50 [2]
8 | > 100 nM | C[C@H]1Cc2c(ccc3[nH]ncc23)[C@H](c2ccc(N3CCC4(CC3)CC(CN3CCN(c5ccc(NC6CCC(=O)NC6=O)cc5F)CC3)C4)cn2)N1CC(F)(F)F (stereo partly drawn) [Compound B120, 3-((3-fluoro-4-(4-((7-(6-((6R,8S)-8-methyl-7-(2,2,2-trifluoroethyl)-6,7,8,9-tetrahydro-3H-pyrazolo[4,3-f]isoquinolin-6-yl)pyridin-3-yl)-7-azaspiro[3.5]nonan-2-yl)methyl)piperazin-1-yl)phenyl)amino)piperidine-2,6-dione] | –
9 | > 100 nM | COc1cc(N2CCC3(CC2)CC(CN2CCC4(CC2)COc2c4ccc4c2CN(C2CCC(=O)NC2=O)C4=O)C3)ccc1[C@@H]1c2ccc3[nH]ncc3c2C[C@@H](C)N1CC(F)F (stereo partly drawn) [Compound B56, 3-(1′-((7-(4-((6S,8R)-7-(2,2-difluoroethyl)-8-methyl-6,7,8,9-tetrahydro-3H-pyrazolo[4,3-f]isoquinolin-6-yl)-3-methoxyphenyl)-7-azaspiro[3.5]nonan-2-yl)methyl)-6-oxo-6,8-dihydro-2H,7H-spiro[furo[2,3-e]isoindole-3,4′-piperidin]-7-yl)piperidine-2,6-dione] | –
10 | < 10 nM | C[C@@H]1Cc2c(ccc3[nH]ncc23)[C@@H](c2cnc(N3CCC4(CC3)CC(CN3CCN5c6cc7c(cc6OC[C@@H]5C3)C(=O)N(C3CCC(=O)NC3=O)C7)C4)nc2)N1CC(F)(F)F (stereo partly drawn) [Compound B113, 3-((S)-3-((7-(5-((6S,8R)-8-methyl-7-(2,2,2-trifluoroethyl)-6,7,8,9-tetrahydro-3H-pyrazolo[4,3-f]isoquinolin-6-yl)pyrimidin-2-yl)-7-azaspiro[3.5]nonan-2-yl)mcthyl)-8-oxo-1,2,3,4,4a,5,8,10-octahydro-9H-pyrazino[1′,2′:4,5][1,4]oxazino[2,3-f]isoindol-9-yl)piperidine-2,6-dione] | –
11 | > 100 nM | C[C@H]1Cc2c(ccc3[nH]ncc23)[C@H](c2cnc(N3CCC4(CC3)CC(CN3CCN(c5ccc(NC6CCC(=O)NC6=O)cc5F)CC3)C4)nc2)N1CC(F)(F)F (stereo partly drawn) [Compound B122, 3-((3-fluoro-4-(4-((7-(5-((6R,8S)-8-methyl-7-(2,2,2-trifluoroethyl)-6,7,8,9-tetrahydro-3H-pyrazolo[4,3-f]isoquinolin-6-yl)pyrimidin-2-yl)-7-azaspiro[3.5]nonan-2-yl)methyl)piperazin-1-yl)phenyl)amino)piperidine-2,6-dione] | –
12 | 10 to 100 nM | C[C@H]1Cc2c(ccc3[nH]ncc23)[C@H](c2cnc(N3CCC4(CC3)CC(CN3CCN5c6cc7c(cc6OC[C@H]5C3)C(=O)N(C3CCC(=O)NC3=O)C7)C4)nc2)N1CC(F)(F)F (stereo partly drawn) [Compound B118, 3-((R)-3-((7-(5-((6R,8S)-8-methyl-7-(2,2,2-trifluoroethyl)-6,7,8,9-tetrahydro-3H-pyrazolo[4,3-f]isoquinolin-6-yl)pyrimidin-2-yl)-7-azaspiro[3.5]nonan-2-yl)methyl)-8-oxo-1,2,3,4,4a,5,8,10-octahydro-9H-pyrazino[1′,2′:4,5][1,4]oxazino[2,3-f]isoindol-9-yl)piperidine-2,6-dione] | –
13 | < 10 nM | C[C@H]1Cc2c(ccc3[nH]ncc23)[C@H](c2cnc(N3CC4(CCC(CN5CCN6c7ccc8c(c7OC[C@@H]6C5)CN([C@@H]5CCC(=O)NC5=O)C8=O)CC4)C3)nc2)N1CC(F)(F)F [Compound B123, (R)-3-((S)-7-((2-(5-((6R,8S)-8-methyl-7-(2,2,2-trifluoroethyl)-6,7,8,9-tetrahydro-3H-pyrazolo[4,3-f]isoquinolin-6-yl)pyrimidin-2-yl)-2-azaspiro[3.5]nonan-7-yl)methyl)-1-oxo-1,3,5,5a,6,7,8,9-octahydro-2H-pyrazino[1′,2′:4,5][1,4]oxazino[2,3-e]isoindol-2-yl)piperidine-2,6-dione] | –
